Assay results from patent publication US8846699B2, “Quinazoline derivatives as a multiplex inhibitor and method for the preparation thereof” (Hanmi Pharm. Co., Ltd., priority 2005, dated 2014).

Columns and labels:
VEGFR2 (KDR) = VEGFR2 (KDR) (Homo sapiens (Human), UniProt P35968); assay: VEGFR2 (KDR) enzyme assay, fluorescence polarization; type: biochemical; conditions: 5 μM ATP, poly(Glu, Tyr) substrate
Procedure, shortened: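 Buffer: 20 mM HEPES pH 7.4 with 5 mM MgCl2, 2 mM MnCl2 and 50 μM Na3VO4. Compound (0.0001–10 μM) was premixed 10 min with VEGFR2 (200 ng/10 μl), then poly(Glu,Tyr) substrate (10 ng/ml) and 5 μM ATP were added for 1 h at room temperature. EDTA-quenched samples were read by FP after 30 min with antibody and tracer.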

EGFR1 (HER-1) = EGFR1 (HER-1) (Homo sapiens (Human), UniProt P00533); assay: EGFR1 (HER-1) enzyme assay, fluorescence polarization; type: biochemical; conditions: 100 μM ATP, poly(Glu, Tyr) substrate
Sequence of EGFR1 (HER-1) (P00533 25-1210): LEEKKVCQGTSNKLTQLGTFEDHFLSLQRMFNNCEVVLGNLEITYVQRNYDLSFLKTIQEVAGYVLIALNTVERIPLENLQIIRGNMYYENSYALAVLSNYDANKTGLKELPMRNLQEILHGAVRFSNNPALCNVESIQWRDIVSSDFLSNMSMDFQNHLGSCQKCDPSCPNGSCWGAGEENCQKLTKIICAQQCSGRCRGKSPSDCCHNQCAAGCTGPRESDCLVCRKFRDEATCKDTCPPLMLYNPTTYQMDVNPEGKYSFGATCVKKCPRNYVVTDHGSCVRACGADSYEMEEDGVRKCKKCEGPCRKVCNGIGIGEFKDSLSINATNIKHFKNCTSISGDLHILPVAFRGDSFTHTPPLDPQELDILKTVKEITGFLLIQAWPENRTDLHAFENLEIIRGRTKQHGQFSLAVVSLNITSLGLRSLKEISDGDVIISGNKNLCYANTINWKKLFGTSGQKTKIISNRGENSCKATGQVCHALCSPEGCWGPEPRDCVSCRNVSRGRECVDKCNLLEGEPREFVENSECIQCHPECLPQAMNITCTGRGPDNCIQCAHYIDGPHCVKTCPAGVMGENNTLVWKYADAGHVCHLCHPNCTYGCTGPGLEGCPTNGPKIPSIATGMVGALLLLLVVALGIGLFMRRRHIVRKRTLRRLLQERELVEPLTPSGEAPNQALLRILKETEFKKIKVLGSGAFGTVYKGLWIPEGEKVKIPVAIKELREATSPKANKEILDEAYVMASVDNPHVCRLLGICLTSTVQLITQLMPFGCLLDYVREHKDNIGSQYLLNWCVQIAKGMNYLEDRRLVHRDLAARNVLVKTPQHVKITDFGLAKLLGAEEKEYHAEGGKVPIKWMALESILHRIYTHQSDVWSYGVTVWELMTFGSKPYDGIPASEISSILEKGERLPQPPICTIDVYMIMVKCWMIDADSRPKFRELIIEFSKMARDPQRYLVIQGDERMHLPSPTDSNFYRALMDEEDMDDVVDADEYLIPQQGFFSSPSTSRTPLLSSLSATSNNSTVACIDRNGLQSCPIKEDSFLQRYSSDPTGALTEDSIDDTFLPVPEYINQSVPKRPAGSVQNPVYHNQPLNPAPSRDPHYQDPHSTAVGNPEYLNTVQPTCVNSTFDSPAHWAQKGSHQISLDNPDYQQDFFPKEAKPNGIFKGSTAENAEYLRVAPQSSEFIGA

[1] = test system: colon and rectal cancer cell line, SW-620; assay: Inhibitory effect on growth of cancer cell line SW-620, SRB; type: cell-based; conditions: Homo sapiens, 72 h, not having overexpressed EGFR and EGFR2
Procedure, shortened: (§1)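 Growth inhibition was measured by sulforhodamine-B staining (absorbance 570 nm) of TCA-fixed cells after 72 h compound exposure at 37 °C, 5% CO2. Test concentrations ran from 10 μM in 10-fold steps to 10^−4, with DMSO below 1%, in 10% FBS DMEM.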

[2] = test system: Human Umbilical Vein Endothelial Cell (HUVEC); assay: Inhibitory effect on growth of human umbilical vein endothelial cell (HUVEC), MTS; type: cell-based; conditions: Homo sapiens, 96 h, 10 ng/ml VEGF, absorbance 490 nm
[3] = test system: skin cancer cell line, A431; assay: Inhibitory effect on growth of cancer cell line A431, SRB; type: cell-based; conditions: Homo sapiens, A-431, 72 h, overexpressed EGFR1 (HER-1)
Procedure, shortened: as §1

[4] = test system: breast cancer cell line, SK-Br3; assay: Inhibitory effect on growth of cancer cell line SK-Br3, SRB; type: cell-based; conditions: Homo sapiens, SK-BR-3, 72 h, overexpressed EGFR2 (HER-2)
Procedure, shortened: as §1

Sequence of VEGFR2 (KDR) (P35968 20-1356): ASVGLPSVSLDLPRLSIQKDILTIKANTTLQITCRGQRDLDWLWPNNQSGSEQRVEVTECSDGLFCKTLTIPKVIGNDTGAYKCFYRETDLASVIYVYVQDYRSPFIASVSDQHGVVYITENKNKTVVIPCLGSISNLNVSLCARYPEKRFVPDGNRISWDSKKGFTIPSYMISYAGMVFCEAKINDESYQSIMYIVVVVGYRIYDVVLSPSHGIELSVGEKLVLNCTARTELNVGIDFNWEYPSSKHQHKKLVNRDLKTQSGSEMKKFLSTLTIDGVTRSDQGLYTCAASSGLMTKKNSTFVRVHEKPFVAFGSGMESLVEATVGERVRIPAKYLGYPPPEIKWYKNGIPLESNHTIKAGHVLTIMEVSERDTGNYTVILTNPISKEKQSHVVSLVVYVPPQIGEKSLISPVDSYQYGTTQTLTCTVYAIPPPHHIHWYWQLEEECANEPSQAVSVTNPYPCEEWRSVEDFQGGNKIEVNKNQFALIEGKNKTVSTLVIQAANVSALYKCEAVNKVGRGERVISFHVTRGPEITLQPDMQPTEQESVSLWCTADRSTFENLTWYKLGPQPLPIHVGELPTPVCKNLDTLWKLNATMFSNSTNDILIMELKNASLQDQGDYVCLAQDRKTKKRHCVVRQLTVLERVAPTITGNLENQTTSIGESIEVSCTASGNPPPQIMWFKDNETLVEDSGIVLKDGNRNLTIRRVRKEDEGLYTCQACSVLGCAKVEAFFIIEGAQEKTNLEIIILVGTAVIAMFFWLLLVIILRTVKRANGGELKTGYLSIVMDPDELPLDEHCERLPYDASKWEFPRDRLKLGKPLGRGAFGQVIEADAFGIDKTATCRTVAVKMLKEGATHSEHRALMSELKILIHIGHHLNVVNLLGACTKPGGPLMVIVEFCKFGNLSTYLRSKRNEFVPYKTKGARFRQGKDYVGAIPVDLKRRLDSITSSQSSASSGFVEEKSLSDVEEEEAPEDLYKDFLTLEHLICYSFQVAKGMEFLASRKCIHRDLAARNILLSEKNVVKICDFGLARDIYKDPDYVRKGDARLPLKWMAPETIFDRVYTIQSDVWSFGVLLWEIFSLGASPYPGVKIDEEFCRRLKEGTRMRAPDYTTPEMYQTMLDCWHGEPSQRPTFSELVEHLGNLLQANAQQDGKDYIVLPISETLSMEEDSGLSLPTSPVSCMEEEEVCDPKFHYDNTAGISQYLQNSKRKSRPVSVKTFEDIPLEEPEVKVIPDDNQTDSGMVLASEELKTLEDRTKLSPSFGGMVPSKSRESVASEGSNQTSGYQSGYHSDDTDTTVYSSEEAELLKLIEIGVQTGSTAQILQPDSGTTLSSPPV

| SMILES | IC50 (VEGFR2 (KDR)) [nM] | IC50 (EGFR1 (HER-1)) [nM] | IC50 [1] [nM] | IC50 [3] [nM] | IC50 [4] [nM] | IC50 [2] [nM] |
| --- | --- | --- | --- | --- | --- | --- |
| C=CC(=O)Nc1cc2c(Nc3ccc(Br)c(Cl)c3F)ncnc2cc1OCCNC(=O)CCO [Example 145, N-{4-(4-bromo-3-chloro-2-fluoro-phenylamino)-7-[2-(3-hydroxy-propionylamino)-ethoxy]-quinazolin-6-yl}-acrylamide] | 88 | 41 | 2630 | 45 | 58 | 116 |
| C=CC(=O)Nc1cc2c(Nc3ccc(Br)cc3F)ncnc2cc1OCCN(C)C [Example 19, N-[4-(4-bromo-2-fluoro-phenylamino)-7-(2-dimethylamino-ethoxy)-quinazolin-6-yl]-acrylamide] | 450 | 9 | 10000 | 39 | 813 | 350 |
| C=CC(=O)Nc1cc2c(Nc3ccc(Br)cc3F)ncnc2cc1OCCNC(=O)N1CCN(C)CC1 [Example 96, 4-methyl-piperazine-1-carboxylic acid {2-[6-acryloylamino-4-(4-bromo-2-fluoro-phenylamino)-quinazolin-7-yloxy]-ethyl}-amide] | 358 | 13 | 10000 | 21 | 239 | 352 |
| C=CC(=O)Nc1cc2c(Nc3cc(OC)c(Cl)cc3OC)ncnc2cc1OCCNC(C)=O [Example 172, N-[7-(2-acetylamino-ethoxy)-4-(4-chloro-2,5-dimethoxy-phenylamino)-quinazolin-6-yl]-acrylamide] | 90 | 87 | 10000 | 91 | 3300 | 125 |
| C=CC(=O)Nc1cc2c(Nc3ccc(Br)cc3F)ncnc2cc1OC[C@H](C)NC(C)=O [Example 83, (S)—N-[7-(2-acetylamino-propoxy)-4-(4-bromo-2-fluoro-phenylamino)-quinazolin-6-yl]-acrylamide] | 71 | 98 | 2870 | 113 | 933 | 106 |
| C=CC(=O)Nc1cc2c(Nc3ccc(Br)c(Cl)c3F)ncnc2cc1OCCNC(=O)NC(C)(C)C [Example 54, N-{4-(4-bromo-3-chloro-2-fluoro-phenylamino)-7-[2-(3-t-butyl-ureido)-ethoxy]-quinazolin-6-yl}-acrylamide] | 423 | 45 | 10000 | 59 | 456 | 568 |
| C=CC(=O)Nc1cc2c(Nc3ccc(Br)cc3F)ncnc2cc1OCCNC(=O)C1CCCN1 (stereo not drawn) [Example 97, pyrrolidine-2-carboxylic acid {2-[6-acryloylamino-4-(4-bromo-2-fluoro-phenylamino)-quinazolin-7-yloxy]-ethyl}-amide] | 658 | 1950 | 2740 | 2380 | 10000 | 867 |
| C=CC(=O)Nc1cc2c(Nc3ccc(Br)cc3F)ncnc2cc1OCC(C)NC(C)=O (stereo not drawn) [Example 81, N-[7-(2-acetylamino-propoxy)-4-(4-bromo-2-fluoro-phenylamino)-quinazolin-6-yl]-acrylamide] | 41 | 154 | 2500 | 365 | 896 | 205 |
| C=CC(=O)Nc1cc2c(Nc3ccc(Br)cc3F)ncnc2cc1OCCNC(=O)CN1CCCC1 [Example 107, N-{4-(4-bromo-2-fluoro-phenylamino)-7-[2-(2-pyrrolidin-1-yl-acetylamino)-ethoxy]-quinazolin-6-yl}-acrylamide] | 200 | 45 | 3590 | 48 | 119 | 289 |
| C=CC(=O)Nc1cc2c(Nc3ccc(Br)c(Cl)c3F)ncnc2cc1OCCNC(=O)CN(CC)CC [Example 151, N-{4-(4-bromo-3-chloro-2-fluoro-phenylamino)-7-[2-(2-diethylamino-acetylamino)-ethoxy]-quinazolin-6-yl}-acrylamide] | 309 | 58 | 9520 | 68 | 153 | 351 |
| C=CC(=O)Nc1cc2c(Nc3ccc(Br)cc3F)ncnc2cc1OCCNC(=O)C=NOC [Example 73, N-{4-(4-bromo-2-fluoro-phenylamino)-7-[2-(2-methoxyimino-acetylamino)-ethoxy]-quinazolin-6-yl}-acrylamide] | 668 | 256 | 10000 | 365 | 589 | 634 |

Continued, in another order:

| IC50 (VEGFR2 (KDR)) [nM] | IC50 (EGFR1 (HER-1)) [nM] | IC50 [1] [nM] | IC50 [3] [nM] | IC50 [4] [nM] | SMILES | IC50 [2] [nM] |
| --- | --- | --- | --- | --- | --- | --- |
| 54 | 7 | 721 | 6 | 12 | C=CC(=O)Nc1cc2c(Nc3ccc(Br)c(Cl)c3F)ncnc2cc1OCCNC(=O)CCN(CC)CC [Example 144, N-{4-(4-bromo-3-chloro-2-fluoro-phenylamino)-7-[2-(3-diethylamino-propionylamino)-ethoxy]-quinazolin-6-yl}-acrylamide] | 154 |
| 545 | 4 | 10000 | 46 | 145 | C=CC(=O)Nc1cc2c(Nc3ccc(Br)cc3F)ncnc2cc1OCCN [Example 29, N-[7-(2-amino-ethoxy)-4-(4-bromo-2-fluoro-phenylamino)-quinazolin-6-yl]-acrylamide] | 951 |
| 50 | 14 | 5680 | 59 | 456 | C=CC(=O)Nc1cc2c(Nc3ccc(Br)cc3F)ncnc2cc1OCC1CCN(C(=O)NC(C)(C)C)CC1 [Example 11, 4-[6-acryloylamino-4-(4-bromo-2-fluoro-phenylamino)-quinazolin-7-yloxymethyl]-piperidin-1-carboxylic acid t-butylamide] | 41 |
| 857 | 7 | 2920 | 8 | 76 | C=CC(=O)Nc1cc2c(Nc3ccc(Br)cc3F)ncnc2cc1OCCNC(=O)CN1CCCCC1 [Example 101, N-{4-(4-bromo-2-fluoro-phenylamino)-7-[2-(2-piperidin-1-yl-acetylamino)-ethoxy]-quinazolin-6-yl}-acrylamide] | 964 |
| 853 | 796 | 5530 | 789 | 987 | C=CC(=O)Nc1cc2c(Nc3ccc(OCc4cccnc4)c(Cl)c3)ncnc2cc1OCCNC(C)=O [Example 130, N-{7-(2-acetylamino-ethoxy)-4-[3-chloro-4-(pyridin-3-ylmethoxy)-phenylamino]-quinazolin-6-yl}-acrylamide] | 964 |
| 698 | 698 | 2320 | 739 | 2560 | C=CC(=O)Nc1cc2c(Nc3ccc(Br)cc3F)ncnc2cc1OCCNC(=O)N1CCNCC1 [Example 94, piperazine-1-carboxylic acid {2-[6-acryloylamino-4-(4-bromo-2-fluoro-phenylamino)-quinazolin-7-yloxy]-ethyl}-amide] | 694 |
| 161 | 14 | 2320 | 16 | 98 | C=CC(=O)Nc1cc2c(Nc3ccc(Br)cc3F)ncnc2cc1OCCNC(=O)COC [Example 44, N-{4-(4-bromo-2-fluoro-phenylamino)-7-[2-(2-methoxy-acetylamino)-ethoxy]-quinazolin-6-yl}-acrylamide] | 265 |
| 523 | 90 | 2530 | 93 | 55 | C=CCCOc1cc2ncnc(Nc3ccc(Br)cc3F)c2cc1NC(=O)C=C [Example 31, N-[4-(4-bromo-2-fluoro-phenylamino)-7-but-3-enyloxy-quinazolin-6-yl]-acrylamide] | 686 |
| 657 | 40 | 2830 | 48 | 109 | C=CC(=O)Nc1cc2c(Nc3cc(Cl)c(Cl)cc3F)ncnc2cc1OCCNC(=O)CS(C)(=O)=O [Example 139, N-{4-(4,5-dichloro-2-fluoro-phenylamino)-7-[2-(2-methanesulfonyl-acetylamino)-ethoxy]-quinazolin-6-yl}-acrylamide] | 682 |
| 215 | 89 | 2220 | 73 | 983 | C=CC(=O)Nc1cc2c(Nc3ccc(Br)cc3F)ncnc2cc1OCCNC(=O)CCO [Example 67, N-{4-(4-bromo-2-fluoro-phenylamino)-7-[2-(3-hydroxy-propionylamino)-ethoxy]-quinazolin-6-yl}-acrylamide] | 351 |
| 789 | 876 | 2320 | 1030 | 1020 | C=CC(=O)Nc1cc2c(Nc3cc(Cl)c(Cl)cc3Cl)ncnc2cc1OCCNC(C)=O [Example 122, N-[7-(2-acetylamino-ethoxy)-4-(2,4,5-trichloro-phenylamino)-quinazolin-6-yl]-acrylamide] | 913 |
